Test results as given in the CheMixHub viscosity set.
± gives the uncertainty stated by the source.

Assay: xn = mol fraction of the nth substance listed

NCCN + O
Conditions | viscosity [mPa·s]
298.15 K, 101 kPa, x1 = 0.044 | 1.221 ± 0.033
298.15 K, 101 kPa, x1 = 0.086 | 1.932 ± 0.053
298.15 K, 101 kPa, x1 = 0.161 | 4.028 ± 0.12
298.15 K, 101 kPa, x1 = 0.194 | 5.2 ± 0.16
298.15 K, 101 kPa, x1 = 0.245 | 6.69 ± 0.21
298.15 K, 101 kPa, x1 = 0.3 | 8.057 ± 0.26
298.15 K, 101 kPa, x1 = 0.33 | 8.351 ± 0.27
298.15 K, 101 kPa, x1 = 0.35 | 8.258 ± 0.27
298.15 K, 101 kPa, x1 = 0.374 | 7.825 ± 0.25
298.15 K, 101 kPa, x1 = 0.387 | 7.734 ± 0.24
298.15 K, 101 kPa, x1 = 0.397 | 7.379 ± 0.24
298.15 K, 101 kPa, x1 = 0.416 | 7.048 ± 0.22
298.15 K, 101 kPa, x1 = 0.441 | 6.544 ± 0.21
298.15 K, 101 kPa, x1 = 0.45 | 6.374 ± 0.2
298.15 K, 101 kPa, x1 = 0.474 | 6.012 ± 0.18
298.15 K, 101 kPa, x1 = 0.502 | 5.885 ± 0.18
298.15 K, 101 kPa, x1 = 0.517 | 5.667 ± 0.17
298.15 K, 101 kPa, x1 = 0.528 | 5.43 ± 0.17
298.15 K, 101 kPa, x1 = 0.55 | 4.61 ± 0.14
298.15 K, 101 kPa, x1 = 0.599 | 3.684 ± 0.11
298.15 K, 101 kPa, x1 = 0.664 | 3.054 ± 0.086
298.15 K, 101 kPa, x1 = 0.699 | 2.569 ± 0.071
298.15 K, 101 kPa, x1 = 0.801 | 1.94 ± 0.053
298.15 K, 101 kPa, x1 = 0.9 | 1.533 ± 0.041
303.15 K, 101.3 kPa, x1 = 0.1138 | 2.607 ± 0.26
303.15 K, 101.3 kPa, x1 = 0.2306 | 6.369 ± 0.64
303.15 K, 101.3 kPa, x1 = 0.3102 | 7.766 ± 0.78
303.15 K, 101.3 kPa, x1 = 0.4116 | 6.837 ± 0.69
303.15 K, 101.3 kPa, x1 = 0.5452 | 4.416 ± 0.44
303.15 K, 101.3 kPa, x1 = 0.6294 | 3.321 ± 0.33
303.15 K, 101.3 kPa, x1 = 0.7296 | 2.434 ± 0.24
303.15 K, 101.3 kPa, x1 = 0.8507 | 1.789 ± 0.18
303.15 K, 101.33 kPa, x1 = 0.05 | 1.368 ± 0.01
303.15 K, 101.33 kPa, x1 = 0.0999 | 2.291 ± 0.016
303.15 K, 101.33 kPa, x1 = 0.15 | 3.635 ± 0.025
303.15 K, 101.33 kPa, x1 = 0.1998 | 5.292 ± 0.036
303.15 K, 101.33 kPa, x1 = 0.2488 | 6.797 ± 0.045
303.15 K, 101.33 kPa, x1 = 0.2749 | 7.372 ± 0.048
303.15 K, 101.33 kPa, x1 = 0.2997 | 7.678 ± 0.05
303.15 K, 101.33 kPa, x1 = 0.3246 | 7.767 ± 0.051
303.15 K, 101.33 kPa, x1 = 0.3488 | 7.67 ± 0.051
303.15 K, 101.33 kPa, x1 = 0.3739 | 7.384 ± 0.05
303.15 K, 101.33 kPa, x1 = 0.3944 | 7.02 ± 0.048
303.15 K, 101.33 kPa, x1 = 0.4542 | 5.965 ± 0.042
308.15 K, 101.3 kPa, x1 = 0.1138 | 2.203 ± 0.22
308.15 K, 101.3 kPa, x1 = 0.2306 | 5.069 ± 0.51
308.15 K, 101.3 kPa, x1 = 0.3102 | 6.072 ± 0.61
308.15 K, 101.3 kPa, x1 = 0.4116 | 5.411 ± 0.54
308.15 K, 101.3 kPa, x1 = 0.5452 | 3.639 ± 0.36
308.15 K, 101.3 kPa, x1 = 0.6294 | 2.793 ± 0.28
308.15 K, 101.3 kPa, x1 = 0.7296 | 2.01 ± 0.2
308.15 K, 101.3 kPa, x1 = 0.8507 | 1.574 ± 0.16
308.15 K, 101.33 kPa, x1 = 0.05 | 1.208 ± 0.008
308.15 K, 101.33 kPa, x1 = 0.0999 | 1.971 ± 0.014
308.15 K, 101.33 kPa, x1 = 0.15 | 3.059 ± 0.021
308.15 K, 101.33 kPa, x1 = 0.1998 | 4.347 ± 0.03
308.15 K, 101.33 kPa, x1 = 0.2488 | 5.484 ± 0.038
308.15 K, 101.33 kPa, x1 = 0.2749 | 5.92 ± 0.04
308.15 K, 101.33 kPa, x1 = 0.2997 | 6.133 ± 0.042
308.15 K, 101.33 kPa, x1 = 0.3246 | 6.213 ± 0.042
313.15 K, 101.3 kPa, x1 = 0.1138 | 1.911 ± 0.19
313.15 K, 101.3 kPa, x1 = 0.2306 | 4.122 ± 0.41
313.15 K, 101.3 kPa, x1 = 0.3102 | 4.906 ± 0.49
313.15 K, 101.3 kPa, x1 = 0.4116 | 4.41 ± 0.44
313.15 K, 101.3 kPa, x1 = 0.5452 | 3.07 ± 0.31
313.15 K, 101.3 kPa, x1 = 0.6294 | 2.402 ± 0.24
313.15 K, 101.3 kPa, x1 = 0.7296 | 1.842 ± 0.18
313.15 K, 101.3 kPa, x1 = 0.8507 | 1.416 ± 0.14
318.15 K, 101.3 kPa, x1 = 0.1138 | 1.652 ± 0.17
318.15 K, 101.3 kPa, x1 = 0.2306 | 3.388 ± 0.34
318.15 K, 101.3 kPa, x1 = 0.3102 | 3.963 ± 0.4
318.15 K, 101.3 kPa, x1 = 0.4116 | 3.585 ± 0.36
318.15 K, 101.3 kPa, x1 = 0.5452 | 2.574 ± 0.26
318.15 K, 101.3 kPa, x1 = 0.6294 | 2.066 ± 0.21
318.15 K, 101.3 kPa, x1 = 0.7296 | 1.613 ± 0.16
318.15 K, 101.3 kPa, x1 = 0.8507 | 1.258 ± 0.13
323.15 K, 101 kPa, x1 = 0.044 | 0.684 ± 0.018
323.15 K, 101 kPa, x1 = 0.086 | 0.92 ± 0.025
323.15 K, 101 kPa, x1 = 0.161 | 1.549 ± 0.045
323.15 K, 101 kPa, x1 = 0.194 | 1.881 ± 0.056
323.15 K, 101 kPa, x1 = 0.245 | 2.184 ± 0.067
323.15 K, 101 kPa, x1 = 0.3 | 2.551 ± 0.08
323.15 K, 101 kPa, x1 = 0.33 | 2.571 ± 0.081
323.15 K, 101 kPa, x1 = 0.35 | 2.643 ± 0.083
323.15 K, 101 kPa, x1 = 0.374 | 2.423 ± 0.076
323.15 K, 101 kPa, x1 = 0.387 | 2.401 ± 0.076
323.15 K, 101 kPa, x1 = 0.397 | 2.306 ± 0.072
323.15 K, 101 kPa, x1 = 0.416 | 2.291 ± 0.071
323.15 K, 101 kPa, x1 = 0.441 | 2.214 ± 0.068
323.15 K, 101 kPa, x1 = 0.45 | 2.069 ± 0.064
323.15 K, 101 kPa, x1 = 0.474 | 2.058 ± 0.062
323.15 K, 101 kPa, x1 = 0.502 | 1.991 ± 0.061
323.15 K, 101 kPa, x1 = 0.517 | 1.919 ± 0.058
323.15 K, 101 kPa, x1 = 0.528 | 1.907 ± 0.057
323.15 K, 101 kPa, x1 = 0.55 | 1.733 ± 0.051
323.15 K, 101 kPa, x1 = 0.599 | 1.539 ± 0.044
323.15 K, 101 kPa, x1 = 0.664 | 1.32 ± 0.037
323.15 K, 101 kPa, x1 = 0.699 | 1.174 ± 0.033
323.15 K, 101 kPa, x1 = 0.801 | 0.978 ± 0.027
323.15 K, 101 kPa, x1 = 0.9 | 0.847 ± 0.023
